US6355799B1, “Substituted benzene compounds, process for their preparation, and herbicidal and defoliant compositions containing them” (ISK Americas Incorporated, priority 1997, dated 2002)

Columns and labels:
Assay type in all cases: in vivo
[1] = system: large crabgrass (Digitaria sanguinalis, DIGSA); assay: Pre-emerge test, greenhouse herbicide activity screening; details: pre-emerge, rated 14 days after application, 0 = no damage, 100 = complete death
In short: (§1)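 Visual ratings on a 0-100 scale (0 no damage, 100 all plants dead) were taken at 14 days after treatment. Rates of 15-1000 g ai/ha in acetone, 187 l/ha, were sprayed onto soil one day after planting (pre-emerge) or onto 2-3 leaf plants with 0.25% v/v surfactant (post-emerge).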

[2] = system: green foxtail (Setaria viridis, SETVI); assay: as above; details: pre-emerge, rated 14 days after application, 0 = no damage, 100 = complete death
In short: as §1

[3] = system: johnsongrass (Sorghum halepense, SORHA); assay: as above; details: pre-emerge, rated 14 days after application, 0 = no damage, 100 = complete death
In short: as §1

[4] = system: ivyleaf morningglory (Ipomoea hederacea, IPOHE); assay: as above; details: pre-emerge, rated 14 days after application, 0 = no damage, 100 = complete death
In short: as §1

[5] = system: barnyardgrass (Echinochloa crus-galli, ECHCG); assay: as above; details: pre-emerge, rated 14 days after application, 0 = no damage, 100 = complete death
In short: as §1

[6] = system: lambsquarters (Chenopodium album, CHEAL); assay: as above; details: pre-emerge, rated 14 days after application, 0 = no damage, 100 = complete death
In short: as §1

[7] = system: sicklepod (Cassia obtusifolia, CASOB); assay: as above; details: pre-emerge, rated 14 days after application, 0 = no damage, 100 = complete death
In short: as §1

[8] = system: velvetleaf (Abutilon theophrasti, ABUTH); assay: as above; details: pre-emerge, rated 14 days after application, 0 = no damage, 100 = complete death
In short: as §1

[9] = system: redroot pigweed (Amaranthus retroflexus, AMARE); assay: as above; details: pre-emerge, rated 14 days after application, 0 = no damage, 100 = complete death
In short: (§2)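 Compounds in acetone were track-sprayed at 15-1000 g ai/ha (187 l/ha) on sandy loam pots: pre-emerge one day after seeding, post-emerge at 2-3 leaf stage with 0.25% v/v non-ionic surfactant. Phytotoxicity was rated 14 days later on a 0 (no damage) to 100 (complete death) scale.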

[10] = system: upland rice (Oryza sp., var. Tebonnet, RICE); assay: Pre-emerge test, crop safety; details: pre-emerge, rated 14 days after application, 0 = no damage, 100 = complete death
In short: as §2

[11] = system: field corn (Zea mays L., var. Dekalb 535, CORN); assay: Pre-emerge test, crop safety; details: pre-emerge, rated 14 days after application, 0 = no damage, 100 = complete death
In short: as §2

[12] = system: upland rice (Oryza sp., var. Tebonnet, RICE); assay: Post-emerge test, crop safety; details: phytotoxicity rating 0-100 (0 no damage, 100 complete death), 14 days after application
In short: as §1

[13] = system: field corn (Zea mays L., var. Dekalb 535, CORN); assay: Post-emerge test, crop safety; details: phytotoxicity rating 0-100 (0 no damage, 100 complete death), 14 days after application
In short: as §1

[14] = system: large crabgrass (Digitaria sanguinalis, DIGSA); assay: Post-emerge test, greenhouse herbicide activity screening; details: phytotoxicity rating 0-100 (0 no damage, 100 complete death), 14 days after application
In short: (§3)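 Herbicidal damage is scored 0 (none) to 100 (complete plant death) two weeks after a simulated field spray. Rates span 15–1000 g ai/ha, delivered in acetone at 187 l/ha. For post-emergence treatments, plants have 2–3 leaves and the spray carries 0.25% v/v non-ionic surfactant.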

[15] = system: redroot pigweed (Amaranthus retroflexus, AMARE); assay: as above; details: phytotoxicity rating 0-100 (0 no damage, 100 complete death), 14 days after application
In short: as §3

[16] = system: green foxtail (Setaria viridis, SETVI); assay: as above; details: phytotoxicity rating 0-100 (0 no damage, 100 complete death), 14 days after application
In short: as §3

[17] = system: johnsongrass (Sorghum halepense, SORHA); assay: as above; details: phytotoxicity rating 0-100 (0 no damage, 100 complete death), 14 days after application
In short: as §3

[18] = system: ivyleaf morningglory (Ipomoea hederacea, IPOHE); assay: as above; details: phytotoxicity rating 0-100 (0 no damage, 100 complete death), 14 days after application
In short: as §3

[19] = system: barnyardgrass (Echinochloa crus-galli, ECHCG); assay: as above; details: phytotoxicity rating 0-100 (0 no damage, 100 complete death), 14 days after application
In short: as §3

[20] = system: lambsquarters (Chenopodium album, CHEAL); assay: as above; details: phytotoxicity rating 0-100 (0 no damage, 100 complete death), 14 days after application
In short: as §3

[21] = system: sicklepod (Cassia obtusifolia, CASOB); assay: as above; details: phytotoxicity rating 0-100 (0 no damage, 100 complete death), 14 days after application
In short: as §3

[22] = system: velvetleaf (Abutilon theophrasti, ABUTH); assay: as above; details: phytotoxicity rating 0-100 (0 no damage, 100 complete death), 14 days after application
In short: as §3

COc1c(Cl)cc(F)c(-n2c(=O)cc(C(F)(F)F)n(C)c2=O)c1NC(=O)C(C)(C)C [2-3]
50: Pre-emerge crop damage RICE (phytotoxicity rating, scale 0-100) ([10]; 250 g ai/ha)
30: Pre-emerge Herbicidal Activity DIGSA (phytotoxicity rating, scale 0-100) ([1]; 63 g ai/ha) | Pre-emerge Herbicidal Activity SORHA (phytotoxicity rating, scale 0-100) ([3]; 250 g ai/ha) | Pre-emerge crop damage CORN (phytotoxicity rating, scale 0-100) ([11]; 250 g ai/ha) | Post-emerge Herbicidal Activity CHEAL ([20]; 63 g ai/ha) | Post-emerge Herbicidal Activity CHEAL ([20]; 250 g ai/ha)
90: Pre-emerge Herbicidal Activity SETVI (phytotoxicity rating, scale 0-100) ([2]; 63 g ai/ha)
60: Pre-emerge Herbicidal Activity DIGSA (phytotoxicity rating, scale 0-100) ([1]; 250 g ai/ha) | Pre-emerge Herbicidal Activity IPOHE (phytotoxicity rating, scale 0-100) ([4]; 63 g ai/ha) | Pre-emerge Herbicidal Activity CASOB (phytotoxicity rating, scale 0-100) ([7]; 63 g ai/ha) | Post-emerge Herbicidal Activity IPOHE ([18]; 63 g ai/ha)
0: Pre-emerge Herbicidal Activity ECHCG (phytotoxicity rating, scale 0-100) ([5]; 63 g ai/ha) | Pre-emerge crop damage CORN (phytotoxicity rating, scale 0-100) ([11]; 63 g ai/ha) | Post-emerge Herbicidal Activity RICE (crop damage) ([12]; 63 g ai/ha) | Post-emerge Herbicidal Activity CORN (crop damage) ([13]; 63 g ai/ha) | Post-emerge Herbicidal Activity DIGSA ([14]; 63 g ai/ha) | Post-emerge Herbicidal Activity DIGSA ([14]; 250 g ai/ha) | Post-emerge Herbicidal Activity SETVI ([16]; 63 g ai/ha) | Post-emerge Herbicidal Activity SETVI ([16]; 250 g ai/ha) | Post-emerge Herbicidal Activity SORHA ([17]; 63 g ai/ha) | Post-emerge Herbicidal Activity SORHA ([17]; 250 g ai/ha) | Post-emerge Herbicidal Activity ECHCG ([19]; 63 g ai/ha) | Post-emerge Herbicidal Activity ECHCG ([19]; 250 g ai/ha) | Post-emerge Herbicidal Activity CASOB ([21]; 63 g ai/ha) | Post-emerge Herbicidal Activity CASOB ([21]; 250 g ai/ha)
80: Post-emerge Herbicidal Activity ABUTH ([22]; 63 g ai/ha)
40: Pre-emerge Herbicidal Activity ECHCG (phytotoxicity rating, scale 0-100) ([5]; 250 g ai/ha) | Post-emerge Herbicidal Activity RICE (crop damage) ([12]; 250 g ai/ha) | Post-emerge Herbicidal Activity AMARE ([15]; 250 g ai/ha)
10: Pre-emerge Herbicidal Activity SORHA (phytotoxicity rating, scale 0-100) ([3]; 63 g ai/ha) | Post-emerge Herbicidal Activity CORN (crop damage) ([13]; 250 g ai/ha) | Post-emerge Herbicidal Activity AMARE ([15]; 63 g ai/ha)
100: Pre-emerge Herbicidal Activity SETVI (phytotoxicity rating, scale 0-100) ([2]; 250 g ai/ha) | Pre-emerge Herbicidal Activity IPOHE (phytotoxicity rating, scale 0-100) ([4]; 250 g ai/ha) | Pre-emerge Herbicidal Activity CHEAL (phytotoxicity rating, scale 0-100) ([6]; 63 g ai/ha) | Pre-emerge Herbicidal Activity CHEAL (phytotoxicity rating, scale 0-100) ([6]; 250 g ai/ha) | Pre-emerge Herbicidal Activity CASOB (phytotoxicity rating, scale 0-100) ([7]; 250 g ai/ha) | Pre-emerge Herbicidal Activity ABUTH (phytotoxicity rating, scale 0-100) ([8]; 63 g ai/ha) | Pre-emerge Herbicidal Activity ABUTH (phytotoxicity rating, scale 0-100) ([8]; 250 g ai/ha) | Pre-emerge Herbicidal Activity AMARE (phytotoxicity rating, scale 0-100) ([9]; 63 g ai/ha) | Pre-emerge Herbicidal Activity AMARE (phytotoxicity rating, scale 0-100) ([9]; 250 g ai/ha) | Post-emerge Herbicidal Activity IPOHE ([18]; 250 g ai/ha) | Post-emerge Herbicidal Activity ABUTH ([22]; 250 g ai/ha)
20: Pre-emerge crop damage RICE (phytotoxicity rating, scale 0-100) ([10]; 63 g ai/ha)
